Results: ChEMBL document CHEMBL3994652, “Cytotoxic clerodane diterpenoids from Croton crassifolius” (Bioorg Med Chem Lett, 2017)
Activity calls are given as the source filed them. No cut-off for these calls is given here.

How the values were obtained:
[1] = tested on: HepG2; experiment: Cytotoxicity against human HepG2 cells assessed as growth inhibition at 100 uM after 48 hrs by MTT assay; type: functional, cell-based
[2] = tested on: Hep 3B2; experiment: Cytotoxicity against human Hep3B cells assessed as growth inhibition after 48 hrs by MTT assay; type: functional, cell-based
[3] = tested on: Hep 3B2; experiment: Induction of apoptosis in human Hep3B cells assessed as cell shrinkage at 20 uM after 48 hrs by acridine orange dye-based fluorescence microscopy; type: functional
[4] = tested on: Hep 3B2; experiment: Induction of apoptosis in human Hep3B cells assessed as increase in cleaved caspase 3 level at 10 to 40 uM after 48 hrs by Western blot method; type: functional, cell-based
[5] = tested on: HepG2; experiment: Cytotoxicity against human HepG2 cells assessed as growth inhibition after 48 hrs by MTT assay; type: functional, cell-based; settings: HepG2, 48 h
[6] = tested on: Hep 3B2; experiment: Cytotoxicity against human Hep3B cells assessed as growth inhibition at 100 uM after 48 hrs by MTT assay; type: functional, cell-based
[7] = tested on: Hep 3B2; experiment: Induction of apoptosis in human Hep3B cells assessed as reduction in pro-caspase 3 level at 10 to 40 uM after 48 hrs by Western blot method; type: functional, cell-based
[8] = tested on: Hep 3B2; experiment: Induction of apoptosis in human Hep3B cells assessed as formation of apoptotic bodies at 20 uM after 48 hrs by acridine orange dye-based fluorescence microscopy; type: functional, cell-based
[9] = tested on: Hep 3B2; experiment: Induction of apoptosis in human Hep3B cells assessed as chromatin condensation at 20 uM after 48 hrs by acridine orange dye-based fluorescence microscopy; type: functional, cell-based
[10] = tested on: Hep 3B2; experiment: Induction of apoptosis in human Hep3B cells assessed as cleaved PARP level after 48 hrs by Western blot method; type: functional, cell-based

| SMILES | growth inhibition (GI) [1] | IC50 [2] [µM] | Activity [3] | Activity [4] | IC50 [5] [µM] | growth inhibition (GI) [6] | Activity [7] | Activity [8] | Activity [9] | Activity [10] |
| --- | --- | --- | --- | --- | --- | --- | --- | --- | --- | --- |
| COC(=O)[C@@]1(C)CC(=O)C=C2C1=CC[C@@H](C)[C@]2(C)CC(=O)c1ccoc1 | Active | 51.6 |  |  |  |  |  |  |  |  |
| C[C@H]1C[C@@H]2OC(=O)[C@]3(C)CCCC(=C23)[C@]12C[C@H](c1ccoc1)OC2=O | Active | 42 | Active | Active | 17.9 | Active | Active | Active | Active | Dose-dependent effect |
| O=c1[nH]cc(F)c(=O)[nH]1 [FLUOROURACIL] |  | 49.7 |  |  |  |  |  |  |  |  |
